Columns and labels:
[1] = Fluid (supercritical or subcritical phases), Constant-volume piezometry
[2] = xn = mol fraction of the nth substance listed; settings: Fluid (supercritical or subcritical phases), Constant-volume piezometry, x2 = 0

O [water]
[1]
Settings | mass density [kg/m3]
270.15 K, 4074.2 kPa | 1001.55
271.17 K, 3818.6 kPa | 1001.52
272.04 K, 5219 kPa | 1002.3
272.13 K, 3596.6 kPa | 1001.49
273.1 K, 3402.1 kPa | 1001.46
273.15 K, 5009.6 kPa | 1002.26
274.12 K, 13437 kPa | 1006.52
274.15 K, 3220.1 kPa | 1001.42
274.15 K, 4843.5 kPa | 1002.23
275.15 K, 4716.5 kPa | 1002.19
275.16 K, 3074.5 kPa | 1001.39
275.18 K, 13355 kPa | 1006.48
276.12 K, 4614.4 kPa | 1002.16
276.16 K, 13306 kPa | 1006.44
276.17 K, 2960.4 kPa | 1001.35
276.18 K, 13305 kPa | 1006.44
277.15 K, 2875.8 kPa | 1001.32
277.15 K, 4535.3 kPa | 1002.12
277.16 K, 13282 kPa | 1006.4
278.13 K, 4490.8 kPa | 1002.08
278.16 K, 2819.8 kPa | 1001.27
278.16 K, 13288 kPa | 1006.35
279.1 K, 4468.4 kPa | 1002.03
279.16 K, 2790.3 kPa | 1001.23
279.17 K, 13328 kPa | 1006.3
280.1 K, 4469.1 kPa | 1001.99
280.17 K, 13374 kPa | 1006.26
281.08 K, 2807.6 kPa | 1001.14
281.14 K, 4509 kPa | 1001.94
281.17 K, 13456 kPa | 1006.21
282.13 K, 13562 kPa | 1006.16
283.15 K, 4649.5 kPa | 1001.84
283.18 K, 13665 kPa | 1006.11
285.14 K, 13994 kPa | 1006.01
286.05 K, 5038.7 kPa | 1001.69
288.15 K, 14714 kPa | 1005.84
289.17 K, 5677.6 kPa | 1001.51
292.12 K, 6505.6 kPa | 1001.33
296.13 K, 7938.8 kPa | 1001.06
300.13 K, 9714.8 kPa | 1000.78
305.19 K, 12424 kPa | 1000.41
308.16 K, 14234 kPa | 1000.19

O [water] + N
[2]
Settings | mass density [kg/m3]
270.15 K, 4074.2 kPa | 1001.55
271.17 K, 3818.6 kPa | 1001.52
272.04 K, 5219 kPa | 1002.3
272.13 K, 3596.6 kPa | 1001.49
273.1 K, 3402.1 kPa | 1001.46
273.15 K, 5009.6 kPa | 1002.26
274.12 K, 13437 kPa | 1006.52
274.15 K, 3220.1 kPa | 1001.42
274.15 K, 4843.5 kPa | 1002.23
275.15 K, 4716.5 kPa | 1002.19
275.16 K, 3074.5 kPa | 1001.39
275.18 K, 13355 kPa | 1006.48
276.12 K, 4614.4 kPa | 1002.16
276.16 K, 13306 kPa | 1006.44
276.17 K, 2960.4 kPa | 1001.35
276.18 K, 13305 kPa | 1006.44
277.15 K, 2875.8 kPa | 1001.32
277.15 K, 4535.3 kPa | 1002.12
277.16 K, 13282 kPa | 1006.4
278.13 K, 4490.8 kPa | 1002.08
278.16 K, 2819.8 kPa | 1001.27
278.16 K, 13288 kPa | 1006.35
279.1 K, 4468.4 kPa | 1002.03
279.16 K, 2790.3 kPa | 1001.23
279.17 K, 13328 kPa | 1006.3
280.1 K, 4469.1 kPa | 1001.99
280.17 K, 13374 kPa | 1006.26
281.08 K, 2807.6 kPa | 1001.14
281.14 K, 4509 kPa | 1001.94
281.17 K, 13456 kPa | 1006.21
282.13 K, 13562 kPa | 1006.16
283.15 K, 4649.5 kPa | 1001.84
283.18 K, 13665 kPa | 1006.11
285.14 K, 13994 kPa | 1006.01
286.05 K, 5038.7 kPa | 1001.69
288.15 K, 14714 kPa | 1005.84
289.17 K, 5677.6 kPa | 1001.51
292.12 K, 6505.6 kPa | 1001.33
296.13 K, 7938.8 kPa | 1001.06
300.13 K, 9714.8 kPa | 1000.78
305.19 K, 12424 kPa | 1000.41
308.16 K, 14234 kPa | 1000.19
